Measurements as given in the NIST ThermoML archive (doi:10.1021/je0302001).

Assay: mn = molality of the nth substance listed, in mol/kg
Details: for surface tension liquid-gas: Ring tensiometer; for viscosity / speed of sound: 101.3 kPa, Liquid; for viscosity: Capillary tube (Ostwald / Ubbelohde) method

O=[N+]([O-])[O-].O=[N+]([O-])[O-].[Zn+2] [nitric acid, zinc salt] + O
Details	speed of sound [m/s]	surface tension liquid-gas [mN/m]	viscosity [mPa·s]
273.15 K, m1 = 0.0875	1413	–	–
273.15 K, m1 = 0.1329	1413.5	–	1.863
273.15 K, m1 = 0.2263	–	75.65	–
273.15 K, m1 = 0.2466	1422.7	–	1.905
273.15 K, m1 = 0.334	–	75.79	–
273.15 K, m1 = 0.3388	1429.7	–	1.95
273.15 K, m1 = 0.6111	1454.8	–	2.081
273.15 K, m1 = 0.6198	–	76.35	–
273.15 K, m1 = 0.6405	1457	–	2.103
273.15 K, m1 = 0.8228	–	77.03	–
273.15 K, m1 = 1.113	1500.1	–	2.431
273.15 K, m1 = 1.258	1516.9	–	2.573
273.15 K, m1 = 1.259	–	78.02	–
273.15 K, m1 = 1.549	–	78.63	–
273.15 K, m1 = 1.551	1544.4	–	2.833
273.15 K, m1 = 1.818	–	78.99	–
273.15 K, m1 = 1.906	1578.6	–	3.306
273.15 K, m1 = 2.145	1600.1	–	3.662
273.15 K, m1 = 2.222	–	80.42	–
273.15 K, m1 = 2.29	1612.6	–	3.902
273.15 K, m1 = 2.292	1612.3	–	–
273.15 K, m1 = 2.344	1617.4	–	3.935
273.15 K, m1 = 2.526	–	81.29	–
273.15 K, m1 = 2.721	–	81.96	–
273.15 K, m1 = 2.91	1663.1	–	5.033
273.15 K, m1 = 3.426	–	83.68	–
273.15 K, m1 = 3.472	1707.7	–	6.559
273.15 K, m1 = 4.011	–	85.35	–
273.15 K, m1 = 4.075	1740.8	–	8.684
273.15 K, m1 = 4.231	–	85.77	–
273.15 K, m1 = 4.817	1780.2	–	12.49
273.15 K, m1 = 5.133	–	87.84	–
273.15 K, m1 = 5.224	1794	–	15.05
278.15 K, m1 = 0.0875	1435.8	–	–
278.15 K, m1 = 0.1329	1436.3	–	1.585
278.15 K, m1 = 0.2466	1444.2	–	1.626
278.15 K, m1 = 0.3388	1450.4	–	1.667
278.15 K, m1 = 0.6111	1472.6	–	1.788
278.15 K, m1 = 0.6405	1474.8	–	1.807
278.15 K, m1 = 1.113	1514.5	–	2.096
278.15 K, m1 = 1.258	1530.4	–	2.221
278.15 K, m1 = 1.551	1555	–	2.436
278.15 K, m1 = 1.906	1586.2	–	2.838
278.15 K, m1 = 2.145	1606.1	–	3.15
278.15 K, m1 = 2.29	1618.1	–	3.351
278.15 K, m1 = 2.292	1617.3	–	–
278.15 K, m1 = 2.344	1622.2	–	3.38
278.15 K, m1 = 2.91	1664.7	–	4.293
278.15 K, m1 = 3.472	1703.6	–	5.554
278.15 K, m1 = 4.075	1737.6	–	7.273
278.15 K, m1 = 4.817	1772.3	–	10.32
278.15 K, m1 = 5.224	1786.4	–	12.33
283.15 K, m1 = 0.0875	1456.4	–	–
283.15 K, m1 = 0.1329	1455.8	–	1.368
283.15 K, m1 = 0.2263	–	74.42	–
283.15 K, m1 = 0.2466	1463.2	–	1.406
283.15 K, m1 = 0.334	–	74.63	–
283.15 K, m1 = 0.3388	1468.8	–	1.444
283.15 K, m1 = 0.6111	1487.8	–	1.559
283.15 K, m1 = 0.6198	–	75.26	–
283.15 K, m1 = 0.6405	1491.2	–	1.571
283.15 K, m1 = 0.8228	–	75.94	–
283.15 K, m1 = 1.113	1526.3	–	1.827
283.15 K, m1 = 1.258	1540.8	–	1.936
283.15 K, m1 = 1.259	–	77.01	–
283.15 K, m1 = 1.549	–	77.42	–
283.15 K, m1 = 1.551	1564	–	2.13
283.15 K, m1 = 1.818	–	78.05	–
283.15 K, m1 = 1.906	1592.7	–	2.478
283.15 K, m1 = 2.145	1611.1	–	2.737
283.15 K, m1 = 2.222	–	79.29	–
283.15 K, m1 = 2.29	1618.7	–	2.901
283.15 K, m1 = 2.292	1619.7	–	–
283.15 K, m1 = 2.344	1626.1	–	2.932
283.15 K, m1 = 2.526	–	80.48	–
283.15 K, m1 = 2.721	–	80.75	–
283.15 K, m1 = 2.91	1665.6	–	3.705
283.15 K, m1 = 3.426	–	82.59	–
283.15 K, m1 = 3.472	1701.3	–	4.774
283.15 K, m1 = 4.011	–	84.21	–
283.15 K, m1 = 4.075	1733.5	–	6.175
283.15 K, m1 = 4.231	–	84.55	–
283.15 K, m1 = 4.817	1765.9	–	8.641
283.15 K, m1 = 5.133	–	86.75	–
283.15 K, m1 = 5.224	1779.8	–	10.24
283.15 K, m1 = 5.797	1795	–	–
283.15 K, m1 = 6.245	–	88.17	–
288.15 K, m1 = 0.0875	1473.6	–	–
288.15 K, m1 = 0.1329	1473.1	–	1.195
288.15 K, m1 = 0.2466	1479.5	–	1.229
288.15 K, m1 = 0.3388	1484.8	–	1.265
288.15 K, m1 = 0.6111	1503	–	1.368
288.15 K, m1 = 0.6405	1505.2	–	1.38
288.15 K, m1 = 1.113	1537.3	–	1.609
288.15 K, m1 = 1.258	1550.2	–	1.705
288.15 K, m1 = 1.551	1571.7	–	1.875
288.15 K, m1 = 1.906	1598.9	–	2.178
288.15 K, m1 = 2.145	1615	–	2.403
288.15 K, m1 = 2.29	1625	–	2.545
288.15 K, m1 = 2.292	1623.1	–	–
288.15 K, m1 = 2.344	1629.2	–	2.57
288.15 K, m1 = 2.91	1666	–	3.231
288.15 K, m1 = 3.472	1699.5	–	4.124
288.15 K, m1 = 4.075	1729.1	–	5.31
288.15 K, m1 = 4.817	1761.2	–	7.338
288.15 K, m1 = 5.224	1769.8	–	8.634
288.15 K, m1 = 5.797	1786.4	–	–
288.15 K, m1 = 6.34	1797.7	–	–
293.15 K, m1 = 0.2263	–	73.17	–
293.15 K, m1 = 0.334	–	73.3	–
293.15 K, m1 = 0.6198	–	74.02	–
293.15 K, m1 = 0.8228	–	74.83	–
293.15 K, m1 = 1.259	–	75.92	–
293.15 K, m1 = 1.549	–	76.32	–
293.15 K, m1 = 1.818	–	76.87	–
293.15 K, m1 = 2.222	–	78.11	–
293.15 K, m1 = 2.526	–	79	–
293.15 K, m1 = 2.721	–	79.59	–
293.15 K, m1 = 3.426	–	81.48	–
293.15 K, m1 = 4.011	–	83.01	–
293.15 K, m1 = 4.231	–	83.39	–
